For one data set, the system named is HT-29 cells. Put plainly: In vitro recovery test: Pb detoxification of poisoned human cells, crystal violet. Format: cell-based. How it is done: (§1) Desalted peptides were then assessed for their ability to detoxify Pb (FIGS. 2a-d). The inventors designed two assays for rapid and reliable screening of potential CAs both in vivo on bacteria and then in vitro on human cell culture. Briefly, DH5a or HT-29 cells were first exposed to Pb(NO3)2 slightly below the minimal inhibitory concentration and then treated with various concentrations of the investigated CA, ranging from 0.1 to 10 equivalents. The viability of the cells was determined by colony counting or by crystal violet (Feoktistova et al, 2016), for the bacteria and the human cells, respectively, and was compared to poisoned cells that were not treated with any CA as the negative control. […] On the other hand, testing the compounds on human cells cannot be performed with insoluble compounds but is more relevant for medicinal purposes.
96-well plates were prepared such that every well contains 10,000 cells in 100 μL medium, and the cells were allowed to adhere overnight. To all wells but the positive control, 10 μL of 22 mM Pb(NO3)2 were added (final concentration 2 mM). 10 μL of H2O was added to the positive control wells. 60 min after addition of metal, 10 μL of each solution of the examined CA (2.4, 6, 12, 24, 48, and 120 mM) were added to reach final concentrations of 0.2, 0.5, 1, 2, 4, and 10 mM (which are 0.1, 0.25, 0.5, 1, 2, and 5 equivalents, respectively). To the positive control wells containing no metal and the negative control wells containing metal but no CA, 10 μL of H2O were added. Each condition was performed in triplicates. The plates were incubated at 37° C. and 5% CO2 for an additional 23 h, after which the medium was removed, washed with fresh medium and 50 μL of crystal violet solution (0.5% crystal violet powder in 20 mL MeOH and 80 mL H2O) to each well and the plates were gently shaken (60 rpm) for 20 min. The plates were then washed with H2O until no more unbound dye was observed and allowed to dry overnight. 200 μL of MeOH were added to each well, and the plates were gently shaken (60 rpm) for 20 min, after which their absorbance at 560 nm was read with a plate reader. The recovery of each concentration of CA was calculated according to equation 2:
A[CAx]—absorbance of the pre-toxified well in the presence of X mM of CA
A[blank]—absorbance of blank wells (contain nothing)
A[NEG]—absorbance of the pre-toxified well that contains no CA
(§2) Each experiment was performed on three independent occasions. Values are mean±SD of >3 repeats each performed in triplicate.

Data set [1] can be described thus: Aqueous solubility of the peptides. Type of data set: physicochemical. From the text:
Attempts to solubilize them, including in different pH conditions, formulation with PEG or co-solvent systems with DMSO failed. Therefore, two analogs of 1 where βAla is substituted by PAsp or PhGlu, to form peptides 1a and 1b, respectively, were synthesized. […] Their low activity might be related to either (a) competition in coordination with Pb^2+ by the two carboxylates, which destabilizes the complexation, or (b) a decrease in their metal selectivity and coordination alkali or alkaline earth metal ions.

The test system of a further data set is DH5α E. coli. Put plainly: In vivo recovery test: Pb detoxification of poisoned bacteria, colony counting. Type of data set: cell-based. As to conditions: for detoxification ability in poisoned E. coli (in words): compared to the benchmark compounds, FIG. 2a; for Recovery DH5α (%): highest concentration 120 mM (10 equiv.), Pb(NO3)2 12 mM, vs poisoned untreated cells, mean. As for the experimental part:
as §1
HRMS (ESI) m/z calculated for C16H26N4O4SNa^+ [M+Na]^+ 427.14442; found: 427.14447 In vivo recovery tests A single colony of DH5a E. coli WT cells was grown overnight at 37° C. and 220 rpm in Tris Minimal Medium (TMM, pH 6.0; 5 mL) without antibiotics. The culture was then diluted to an OD600 of 0.03 with additional TMM to a total volume of 5 mL, and its OD600 was monitored. Upon cell density of 0.25 (which was achieved after 3-5 h), 1 mL of the culture was transferred into a cell culture tube and was labeled as the positive control. To additional 3 mL of the culture, 36 μL of Pb(NO3)2 1 M were added (final concentration of 12 mM). Both cultures were shaken at 37° C. and 220 rpm for an additional 5 h.
Aqueous stock solutions of each CA were plated on freshly prepared agar-LB plates such that the final concentration of each compound is equal to 0.5, 1, 2, 5, and 10 equivalents, compared to the amount of Pb(NO3)2 in 50 μL pre-toxified culture. The stock solutions were prepared such that plating and equally spreading 30 μL of each solution will provide the desired amount of CA. To additional two plates, 30 μL of H2O was added.
50 μL of the pre-toxified culture were homogenously spread to each CA-containing plate, 5 h after adding the metal to the culture. The Pb-containing culture was also plated on one of the two H2O-containing plates and was labeled as the negative control. Lastly, 50 μL of the non-toxified culture were platted on the second H2O-containing plate and was labeled as positive control. All plates (positive and negative control and five plates for each examined compound) were then incubated at 37° C. overnight. The plates were then imaged, and the colonies were counted (with Vilber Quantum Visualization System). The recovery of each concentration of CA was calculated according to equation 1: […]
#CAx—number of colonies of pre-toxified culture in a plate containing X mM of CA
#NEG—number of colonies of pre-toxified culture in a plate containing no CA
as §2

For another data set, the system named is male mice (C57BL/6). Nature of the data set: Pb-poisoned mice: blood lead level and urinary Pb by ICP-MS. The note with it: for BLL / Urinary Pb (ppm): 30 mg kg^−1 day^−1, days 10-16; for BLL: blood on day 18, eight mice; for Urinary Pb (ppm): urine on day 18. Type of data set: in vivo. As for the experimental part:
Peptide 8a was then tested in mice. 40 male mice (C57BL/6) aged 6-8 weeks were provided with 20 mM Pb(OAc)2 solution as the sole water supply for seven days (days 1-7). This poisoning route mimics chronic exposure in humans. Two days after returning to clean water (day 9), they were randomly divided into five groups of eight mice. They received a single treatment per day for seven days (days 10-16) of either CaNa2EDTA, DMSA, or 8a at a concentration of 30 mg kg^−1 except for group 1 that served as the negative control (Table 3).
Blood samples (100 μL) were collected before dosing the mice on days 10-15 and on day 18, which is two days after the last dosing and the day by which the experiment was terminated. Urine was also collected from 34 animals on day 18 and was kept frozen until analysis.

[2] abbreviates: also different pH, PEG formulation, DMSO co-solvent failed.
[3] abbreviates: soluble^b = with the addition of 2 equiv. NaOH or 1 equiv. of Ca(OH)2.

Square brackets hold non-standard residues; d marks the D form. Ends that are not written are not given here. SAsp = aspartic acid substituted by -SH; β3hE = N[C@@H](CCC(=O)O)CC(=O)O; βAla = NCCC(=O)O

For `O=C(O)CN(CCN(CC(=O)O)CC(=O)O)CC(=O)O` [EDTA, ethylenediaminetetraacetic acid], the “effect of the counter cation (Ca vs. Na salt) on detoxification activity” value in the data set with HT-29 cells (HT-29, FIG. 2d) is on record as “higher activity as a Ca-salt”.

On to `O=C1CCNC(=O)[C@H](CS)NC(=O)CCNC(=O)[C@H](CS)N1` [compound 1, Cys-βAla-Cys-βAla], for which the “Aqueous solubility” value in data set [1] (setting [2]) is given as “low aqueous solubility”; in data set [1] (setting [3]), “insoluble”. Further, in the data set with DH5α E. coli (DH5α, treatment after Pb(NO3)2), the “increase of recovery of poisoned E. coli” value is “more than 8 fold”. Further, in the data set with DH5α E. coli, the “detoxification ability in poisoned E. coli (in words)” value (“detoxification ability” below) is listed as “outstanding results”.

As for `CSCC[C@@H]1NC(=O)CCNC(=O)[C@H](CCSC)NC(=O)CCNC1=O` [compound 3, Met-βAla-Met-βAla], the Aqueous solubility result in data set [1] (setting [3]) was “insoluble”. The “Recovery DH5α (%)” value in the data set with DH5α E. coli was 139%.

Consider `CSCC[C@@H]1NC(=O)CCNC(=O)[C@H](CS)NC(=O)CCNC1=O` [compound 6, Cys-βAla-Met-βAla], for which the “Aqueous solubility” value in data set [1] (setting [2]) is “low aqueous solubility”; in data set [1] (setting [3]), “insoluble”. Further, in the data set with DH5α E. coli, the “detoxification ability” value was “outstanding results”.

Turning to `O=C1CCNC(=O)[C@H](Cc2c[nH]cn2)NC(=O)CCNC(=O)[C@H](CS)N1` [compound 7, Cys-βAla-His-βAla], the Aqueous solubility entry in data set [1] (setting [3]) is recorded as “insoluble”. Moreover, the “Recovery DH5α (%)” value with DH5α E. coli is 47%.

Regarding `O=C1CCNC(=O)[C@H](Cc2ccccc2)NC(=O)CCNC(=O)[C@H](CS)N1` [compound 9, Cys-βAla-Phe-βAla], in data set [1] (setting [3]), the Aqueous solubility entry is “insoluble”. Besides, in the data set with DH5α E. coli, the “Recovery DH5α (%)” value came to 180%.

For the compound `O=C1CCNC(=O)[C@@H](CS)NC(=O)CCNC(=O)[C@H](CS)N1` [peptide 2, Cys-βAla-DCys-βAla], the “Aqueous solubility” value is “low aqueous solubility” in data set [1] (setting [2]) and “insoluble” in data set [1] (setting [3]). Besides, the “detoxification ability” value in the data set on DH5α E. coli is given as “outstanding results”.

Take “[Cys-βhGlu]2 (C[β3hE]C[β3hE]; not fully specified (bridges); printed as [Cys-βhGlu]2; also: cyclic, ring type not given here) [1b, cyclic tetrapeptide]”: the “solubility as Na or Ca salts” value in data set [1] (Na or Ca salts) is “high solubility”. Moreover, the Aqueous solubility result in data set [1] (setting [3]) is recorded as “soluble^b”. Besides, in the data set with DH5α E. coli, the “detoxification ability” value is listed as “unsatisfied” and the “Recovery DH5α (%)” value is 30%.

“cyc-[SAsp-βAla-Asp-βAla] (cyclo([SAsp][βAla]D[βAla])) [8a]”: the “removal of Pb in urine compared with the SOCs” value with male mice (C57BL/6) (IV and oral, vs CaNa2EDTA and DMSA, day 18) is listed as 1.3-2.2 folds. Also, in the data set on male mice (C57BL/6) (IV), the “BLL” value is 16.0 ± 1.5 µg/dL and the “Urinary Pb (ppm)” value was 452 ± 47 ppm. For the same compound, in the data set with male mice (C57BL/6) (IV, day 18), the “Pb expelled in urine compared with the untreated group” value stood at 2.9 folds, the “reduction of average BLL compared to no treatment” value was 2.1 folds and the “reduction of average BLL compared with CaNa2EDTA” value worked out at 1.6 folds. For the same compound, in the data set on male mice (C57BL/6) (Oral), the “BLL” value turned out to be 17.7 ± 1.3 µg/dL and the “Urinary Pb (ppm)” value worked out at 435 ± 28 ppm. For the same compound, in the data set with male mice (C57BL/6) (oral, day 18), the “Pb expelled in urine compared with the untreated group” value turned out to be 2.8 folds, the “reduction of BLL compared with DMSA” value was found to be 1.3 folds and the “reduction of BLL compared with no treatment” value came out at 1.9 folds. Also, in the data set with HT-29 cells (Pb(NO3)2 2 mM, CA added 1 h later, vs all investigated peptides and standards of care, FIG. 4), the “dose-dependent recovery of HT-29 cells (in words)” value is “best results”.

For the origin of these results see patent US20240025946A1, “Cyclic Tetrapeptides and Metal Complexes Thereof” (priority 2020, published 2024).
